In assay [1] the test system is Xanthomonas campestris. In words: In-vitro plant fungicide test, XAN. It counts as cell-based. Conditions: XAN, rate 25 PPM, read-out: % Control.
The test system of assay [2] is Pseudoperonospora cubensis. Kind of assay: whole plant or invertebrate. Conditions: in Cucumis sativus, 168 h. The assay is classed as in vivo.
Assay [3] relates to Septoria glume blotch of wheat. In words: whole plant or invertebrate. Conditions: Triticum aestivum. It counts as in vivo.
The test system of assay [4] is Botrytis cinerea. Kind of assay: In-vitro plant fungicide test, BOC. Conditions: read-out: % Control.
Assay [5] has as its system Pythium ultimum. In words: In-vitro plant fungicide test, PYU. It counts as cell-based. Conditions: Globisporangium ultimum, rate 25 PPM, read-out: % Control.
In assay [6] the test system is Phytophthora infestans. Kind of assay: whole plant or invertebrate. Conditions: in Solanum lycopersicum, 96 h, read-out: % Control. The assay is classed as in vivo.
Assay [7] concerns Cochliobolus sativus. In words: In-vitro plant fungicide test, HEL. The assay is classed as cell-based. Conditions: Bipolaris sorokiniana, rate 25 PPM, read-out: % Control.
The subject of assay [8] is Phytophthora capsici. Kind of assay: In-vitro plant fungicide test, PHY. It counts as cell-based. Conditions: rate 25 PPM, read-out: % Control.
For assay [9], the system named is Piricularia oryzae. Kind of assay: microbe, parasite or virus in culture. It counts as cell-based. Conditions: read-out: % Control.
The test system of assay [10] is Puccinia recondita (f. sp. tritici Races PKB and PLD). In words: whole plant or invertebrate. It counts as in vivo. Conditions: 240 h.
Assay [11] relates to Pseudomonas fluorescens. In words: MIC, broth two-fold serial dilution test, Psfl. The assay is classed as cell-based. Conditions: read-out: Minimum Inhibitory Concentration (MIC). As to the method:
(§1) A minimum inhibitory concentration (MIC) value is obtained using a broth, two-fold serial dilution test performed as follows: […] A volume of the stock solution is dispensed into culture media to give an initial starting test concentration of 500 ppm compound. The test is carried out by adding and equal volume of broth to each vessel in the dilution series, except for the first vessel. The first vessel contains twice the volume of broth plus the initial concentration of test compound. One half of the broth from the first vessel is transferred to the second vessel. After being mixed, one half the resulting volume is removed from the second vessel and transferred to the third vessel. The entire cycle is repeated sufficiently to give a series of concentrations amounting to 500, 250, 125, 63, 31, 16, 8, and 4 ppm (or 100, 50, 25, 12.5, 6.2, 3.1, 1.6, and 0.8), respectively. Each vessel is then inoculated with a cell suspension of the appropriate test organism. Bacteria are grown in both and fungi on agar slats for a time and at a temperature appropriate to the species being tested. At the end of the growth period, the broth is vortexed to disperse the cells. In the case of fungi, the pores are harvested by pipetting water onto the slant and dislodging the spores with a sterile loop. The cell/spore suspension is standardized by controlling incubation time, temperature, and the volume of the diluent. The suspension is then used to inoculate the vessels containing the broth compound. The vessels are then incubated at the appropriate temperature. After the incubation, the vessels are examined for growth/no growth. The minimum inhibitory concentration (MIC) is defined as the lowest concentration of compound that results in complete inhibition of growth of the test organism.

Assay [12] has as its system Pseudomonas aerugenosa. Kind of assay: MIC, broth two-fold serial dilution test, Psae. The assay is classed as cell-based. Conditions: read-out: Minimum Inhibitory Concentration (MIC). As to the method:
as §1

For assay [13], the system named is Rhizoctonia solani. Kind of assay: In-vitro plant fungicide test, RHI. Conditions: rate 25 PPM, read-out: % Control. The assay is classed as cell-based.
In assay [14] the test system is Septoria nodorum. Kind of assay: In-vitro plant fungicide test, SEP. Conditions: Parastagonospora nodorum, rate 25 PPM, read-out: % Control. The assay is classed as cell-based.
For assay [15], the system named is Escherichia coli. In words: MIC, broth two-fold serial dilution test, Ecol. The assay is classed as cell-based. Conditions: read-out: Minimum Inhibitory Concentration (MIC). As to the method: as §1
Assay [16] relates to Fusarium roseum. In words: microbe, parasite or virus in culture. Conditions: Fusarium sambucinum, read-out: % Control.
Assay [17] has as its system Aspergillus niger. Kind of assay: MIC, broth two-fold serial dilution test, Anig. The assay is classed as cell-based. Conditions: read-out: Minimum Inhibitory Concentration (MIC). How it is done:
as §1

Assay [18] has as its system Aureobasidium pullulans. Kind of assay: MIC, broth two-fold serial dilution test, Apul. The assay is classed as cell-based. Conditions: read-out: Minimum Inhibitory Concentration (MIC). How it is done:
as §1

Assay [19] relates to Staphylococcus aureus. Kind of assay: MIC, broth two-fold serial dilution test, Saur. Conditions: read-out: Minimum Inhibitory Concentration (MIC). The assay is classed as cell-based. As to the method: as §1
The test system of assay [20] is Erysiphe graminis (f. sp. tritici). Kind of assay: whole plant or invertebrate. The assay is classed as in vivo. Conditions: Blumeria graminis.
For assay [21], the system named is Piricularia oryzae. Kind of assay: whole plant or invertebrate. It counts as in vivo. Conditions: Pyricularia oryzae, 192 h, read-out: % Control.

In patent publication US5112382A, “Halopropargyl compounds, compositions, uses and processes of preparation” (Rohm and Haas Company, priority 1990, dated 1992) one finds inhibition of growth, pest or weed control and MIC data, which are given here for 3 compounds.

As to `CCOC(=O)N(CC#CBr)N=Cc1ccc(Cl)c(Cl)c1` [Compound 14, N'-Ethoxycarbonyl-N'-3-bromopropargyl 3,4-dichlorobenzaldehyde hydrazone], the inhibition of growth at 25 ppm in assay [1], in assay [4], in [5], in assay [7], in assay [8] and in [9] was 0% throughout. Moreover, the inhibition of growth at 25 ppm in assay [13] is 50%; in assay [14], 0%; in assay [16] it was 0%. In addition, the pest or weed control at 200 ppm turned out to be 0% in assay [2]; 0% in assay [3]; 0% in assay [6]; 0% in assay [10]; 85% in assay [20]; 0% in assay [21]. The MIC in assay [11], in assay [12], in assay [15], in assay [17], in assay [18] and in [19] was > 100 µg/mL throughout.
Turning to `COC(=O)N(CC#CI)N=Cc1cc(Cl)cc(Cl)c1` [Compound 15, N'-Methoxycarbonyl-N'-3-iodopropargyl 3,5-dichlorobenzaldehyde hydrazone], the inhibition of growth at 25 ppm in [1] came out at 0%; in [4], 0%; in [5], 0%; in assay [7] it was 50%; in assay [8] it was 0%; in assay [9], 100%. Moreover, the inhibition of growth at 25 ppm in assay [13] was 75%; in assay [14], 0%; in assay [16], 75%. Moreover, the pest or weed control at 200 ppm in [2], in assay [3], in assay [6], in [10], in assay [20] and in assay [21] was 0% throughout. In addition, the MIC in [11], in assay [12], in assay [15], in [17], in [18] and in assay [19] was > 100 µg/mL in each case.
As for `COC(=O)N(CC#CBr)N=Cc1cc(Cl)cc(Cl)c1` [Compound 16, N'-Methoxycarbonyl-N'-3-bromopropargyl 3,5-dichlorobenzaldehyde hydrazone], the inhibition of growth at 25 ppm in assay [1], in assay [4], in assay [5], in [7], in [8] and in assay [9] was 0% each time. The inhibition of growth at 25 ppm in assay [13], in [14] and in assay [16] was 0% in each case. Moreover, the pest or weed control at 200 ppm in assay [2], in assay [3], in assay [6], in [10], in assay [20] and in [21] was 0% in each case. The MIC in assay [11], in [12], in assay [15], in assay [17], in assay [18] and in assay [19] was > 100 µg/mL in each case.
